Results taken from patent US8552031B2, “3-ethylidenehydrazino substituted heterocyclic compounds as thrombopoietin receptor activators” (Nissan Chemical Industries, Ltd., priority 2004, dated 2013).

Experiments:
[1] = biological target: T1, human TPO receptor (c-mp1) (Homo sapiens, UniProt P40238); experiment: Stimulation of proliferation of TPO-dependent cell line UT7/EPO-mpl (WST-8); format: cell-based
T1 construct: expressed in transfected cells
T1 sequence (P40238 26-635): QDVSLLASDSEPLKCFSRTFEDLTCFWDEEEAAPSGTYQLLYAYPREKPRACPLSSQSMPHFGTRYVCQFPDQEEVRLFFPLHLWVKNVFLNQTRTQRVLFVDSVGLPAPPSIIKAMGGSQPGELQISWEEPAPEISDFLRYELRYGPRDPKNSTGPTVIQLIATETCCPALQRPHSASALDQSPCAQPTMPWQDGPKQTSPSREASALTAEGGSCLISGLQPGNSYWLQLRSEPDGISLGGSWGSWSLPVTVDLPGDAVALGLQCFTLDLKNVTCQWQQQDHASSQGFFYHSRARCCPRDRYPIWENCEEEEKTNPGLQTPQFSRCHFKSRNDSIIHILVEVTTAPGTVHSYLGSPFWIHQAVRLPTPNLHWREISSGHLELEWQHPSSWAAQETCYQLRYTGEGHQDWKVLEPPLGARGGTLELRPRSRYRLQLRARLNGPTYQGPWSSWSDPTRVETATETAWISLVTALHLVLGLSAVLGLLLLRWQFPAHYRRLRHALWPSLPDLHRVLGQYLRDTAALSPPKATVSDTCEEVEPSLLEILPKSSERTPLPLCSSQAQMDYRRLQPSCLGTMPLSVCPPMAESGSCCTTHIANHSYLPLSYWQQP
Procedure: The reactivity of the compound of Synthetic Example 4 of the present invention with thrombopoietin (TPO) receptor was assayed using a human leukemic cell line, UT7/EPO-mpl.
(§1) UT7/EPO-mpl is a stable transformed cell line obtained by introducing into human leukemic cell line UT7/EPO a vector that induces expression of human TPO receptor (c-mp1) under control of cytomegalovirus immediate-early promoter by the method of Takatoku et al. (J. Biol. Chem., 272:7259-7263 (1997)). […] These two cell lines were subcultured in Iscove's modified Dulbecco's medium (IMDM; GIBCO) containing 10% fetal bovine serum (FBS; Thermo Electron or BioWest) using a CO2 incubator (5% CO2, 37° C.).
(§2) The subcultured cells described above were washed twice with phosphate buffered saline (PBS) and suspended in IMDM containing 10% FBS at a cell density of 6×10^4 cells/ml. The cell suspension was transferred to a 96-well tissue culture plate (CORNING) in 100-μl aliquots. Then either TPO (Pepro Tech EC) or the compound of Synthetic Example 4 dissolved in dimethyl sulfoxide (DMSO) was diluted 83-fold with IMDM containing 10% FBS and added to the aforementioned cell suspension in 20-μl aliquots. The cell suspension was incubated in a CO2 incubator (5% CO2, 37° C.) for 4 days. Cell proliferation was assayed using WST-8 reagent (Kishida Chemical Co., Ltd.) according to instructions by the manufacturer. A 10-μl aliquot of 5 mM WST-8 reagent solution was added to each well of the tissue culture plate, and the plate was incubated at 37° C. for 4 h. The formazan pigment generated was detected by measuring the absorbance at 450 nm with a 96-well microplate reader (Nihon Molecular Devices, Spectramax 190).
The compounds of the following Synthetic Examples were tested according to the method of Assay Example 1 to determine the concentration of each compound that yields a growth rate corresponding to 50% of the growth of human leukemic cell line UT-7/EPO-mpl observed in the presence of 10 ng/ml TPO (EC50).

[2] = test system: UT7/EPO cells; experiment: Proliferation of mother cell line UT7/EPO expressing no TPO receptor (WST-8); format: cell-based, human; conditions: FIG. 2, 4 days incubation
Procedure: as §1
as §2, with “A 10-μl aliquot of 5 mM WST-8 reagent solution was added to each well of the tissue culture plate, and the plate was incubated at 37° C. for 4 h.” left out

With CC(=NNC(=S)NCC(=O)O)c1csc(-c2ccc(Cl)c(Cl)c2)c1O [Synthetic Example 4, 2-[(2-{1-[5-(3,4-dichlorophenyl)-4-hydroxythiophen-3-yl]-etylidene}-hydrazinocarbonothioyl)amino]acetic acid] the “proliferation of TPO-responsive UT7/EPO-mpl cells” value ([1]; FIG. 1, 4 days incubation, WST-8, absorbance at 450 nm) was “stimulated by the compound of Synthetic Example 4 in a concentration-dependent manner”, the EC50 ([1]; concentration that yields a growth rate corresponding to 50% of the growth of UT-7/EPO-mpl observed in the presence of 10 ng/ml TPO, 4 days incubation) was 5.6 ng/mL and the “selectivity of action on the TPO receptor” value ([1]; concluded from UT7/EPO-mpl versus UT7/EPO proliferation (FIG. 1, FIG. 2)) was “acts on the TPO receptor selectively as an activator”. For the same compound, the “effect on proliferation of UT7/EPO, the mother cell line” value [2] was “no effect”.
